Converted amounts (≈) assume the structure as drawn. Read-outs that look alike come from different tables or passages of the source.
Experiments:
Type in all cases: cell-based
[1] = test system: Spiroplasma citri; test: Activity against Spiroplasma citri (MIC); details: for MIC S.Citri (with Cu): Table IVb, with Cu (50 μg/ml Cu^2+); for MIC with Cu / MIC: Table III; for MIC with Cu: media containing 50 μg/ml Cu^2+; for MIC: without added Cu
From the text: (§1) The following tables show some activities--expressed as minimum inhibiting concentration (MIC)--of the prepared compounds against various micro-organisms. The compounds are identified by reference to the Example in which they are described. When more than one compound is mentioned in an Example, they are distinguished by a number between parentheses, corresponding to their order of occurrence, for instance: VI (2) refers to the second compound prepared according to Example VI. The term "with Cu" refers to tests conducted in media containing 50 μg/ml Cu^2+.
(§2) The activities of the following compounds, not mentioned in the Examples, were also measured.

[2] = test system: Mycoplasma gallisepticum; test: Activity against Mycoplasma gallisepticum (minimum inhibiting concentration); details: for MIC: without added Cu; for MIC with Cu: media containing 50 μg/ml Cu^2+
From the text: as §1, §2

[3] = test system: M. gallisepticum K514; test: Development of resistance of M. gallisepticum K514 in the presence of copper ions (repeated MIC determinations); details: 100 μg/ml Cu^2+; procedure repeated 12 times
Procedure: It was investigated whether M. gallisepticum K514 develops a resistance against the compounds of Examples IX (1), IX (2), VIIIe and XIIb in the presence of copper ions. The MIC's in the presence of 100 μg/ml Cu^2+ were determined in the usual way. The test tubes containing the highest concentration of each compound in which a considerable growth of micro-organism still occurred, were used for inoculation in a next determination. […] Consequently, no resistance is developed.

[4] = test system: M. meleagridis; test: Activity against other Mycoplasma species: M. meleagridis (MIC); details: Table II, with Cu (50 μg/ml Cu^2+)
From the text: as §1

[5] = test system: M. synoviae; test: Activity against other Mycoplasma species: M. synoviae (MIC); details: Table II, with Cu (50 μg/ml Cu^2+)
From the text: as §1

[6] = test system: M. Hyorhinis (tylosin resistent); test: Activity against other Mycoplasma species: M. Hyorhinis (tylosin resistent) (MIC); details: Table II, copper complexes, head 'with Cu' possibly not covering these columns
From the text: as §1

[7] = test system: M. hyorhinis; test: Activity against other Mycoplasma species: M. hyorhinis (MIC); details: Table II, copper complexes, head 'with Cu' possibly not covering these columns
From the text: as §1

[8] = test system: M. suipneumoniae; test: Activity against other Mycoplasma species: M. suipneumoniae (MIC); details: Table II, copper complexes, head 'with Cu' possibly not covering these columns
From the text: as §1

[9] = Mycoplasmoides gallisepticum, Table I, read-out: MIC

| SMILES | MIC [2, 9] [µg/mL] | MIC with Cu ([2]; Table I) [µg/mL] | MIC with Cu [1] [µg/mL] | other results |
| --- | --- | --- | --- | --- |
| CCCCCCCCCCCc1c(-c2ccccn2)ncc2ccccc12 [D] | – | – | – | MIC S.Citri (with Cu) [1]: 0.8 µg/mL (≈ 2.22 µM) |
| Cc1nc(-c2ccccn2)cc2ccccc12 [XIIc (3), 1-methyl-3-(2-pyridyl)isoquinoline] | 6 (≈ 27.2 µM) | 0.06 | 0.2 | – |
| CCc1cccc(-c2cc3ccccc3c(N)n2)n1.Cl [IX (2), 1-amino-3-(6-ethyl-2-pyridyl) isoquinoline hydrochloride] | – | 0.02 | 0.2 | Resistance development: change of MIC [3]: without a significant increase of the MIC's; MIC with Cu [4]: 0.013 µg/mL; MIC with Cu [5]: 0.05 µg/mL |
| Cc1cccc(-c2cc3ccccc3c(N)n2)n1.Cl [IX (1), 1-amino-3-(6-methyl-2-pyridyl)-isoquinoline hydrochloride] | 100 | 0.03 | 0.4 | Resistance development: change of MIC [3]: without a significant increase of the MIC's; MIC with Cu [4]: 0.025 µg/mL; MIC with Cu [5]: 0.025 µg/mL |
| CCCCCCCCCCc1ccc2c(N)nc(-c3ccccn3)cc2c1 [VIIIg] | 100 (≈ 277 µM) | 0.06 | 0.8 | – |
| CCc1nc(-c2ccccn2)cc2ccccc12 [XIIId, 1-ethyl-3-(2-pyridyl)isoquinoline] | – | 0.06 | 0.2 | – |
| Nc1nc(-c2ccccn2)cc2ccccc12 [XIIc (1), 1-amino-3-(2-pyridyl)isoquinoline] | > 100 | 0.4 | 0.2 | – |
| Nc1nc(-c2ccccn2)cc2c(Cl)cccc12 [VIIIh] | > 100 | 0.05 | 0.4 | – |
| Cc1cccc(-c2cc3ccccc3c(N)n2)n1.Cc1cccc(-c2cc3ccccc3c(N)n2)n1.O=[N+]([O-])[O-].[Cu+] [IIf, Bis[1-amino-3-(6-methyl-2-pyridyl)isoquinoline]cuprous nitrate] | – | 0.03 | – | MIC [1]: 25 µg/mL |
| Cc1ccc2ccc3ccc(C)nc3c2n1.Cc1ccc2ccc3ccc(C)nc3c2n1.O.O=[N+]([O-])[O-].O=[N+]([O-])[O-].[Cu+2] [VI (1), bis(2,9-dimethyl-1,10phenanthroline)cupric nitrate monohydrate] | – | – | – | MIC [6]: 1 µg/mL; MIC ([2]; Table I): 0.4 µg/mL; MIC [1]: 50 µg/mL; MIC [7]: 3 µg/mL; MIC [8]: 3 µg/mL |
| CCc1cccc2cc(-c3ccccn3)nc(N)c12 [VIIIf] | > 100 | 0.05 | 0.4 | – |
| Cc1cccc(-c2cc3ccccc3c(C)n2)n1 [XIIb, 1-methyl-3(6-methyl-2-pyridyl)isoquinoline] | – | 0.03 | 0.05 | Resistance development: change of MIC [3]: without a significant increase of the MIC's; MIC with Cu [4]: 0.05 µg/mL; MIC with Cu [5]: 0.1 µg/mL |
| Cc1cccc2cc(-c3ccccn3)nc(N)c12 [VIIIe] | 100 (≈ 425 µM) | 0.06 | 0.1 | Resistance development: change of MIC [3]: without a significant increase of the MIC's; MIC with Cu [4]: 0.05 µg/mL; MIC with Cu [5]: 0.1 µg/mL |
| COc1ccc2ccc3ccc(OC)nc3c2n1 [H] | – | – | – | MIC S.Citri (with Cu) [1]: 1.5 µg/mL (≈ 6.24 µM) |
| Cc1ccc2ccc3ccc(C)nc3c2n1 [A] | – | – | – | MIC S.Citri (with Cu) [1]: 0.03 µg/mL (≈ 0.144 µM) |
| C=Cn1ccnc1-c1nc(N)c2ccccc2n1.O=[N+]([O-])[O-].O=[N+]([O-])[O-].[Cu+2] [XVIIIb (2), Mono[4-amino-2-(1-ethenyl-1H-imidazole-2-yl)quinazoline]cupric nitrate] | – | 0.2 | – | MIC ([2]; Table I): 6 µg/mL |
| Nc1nc(-c2ccccn2)cc2c(Cl)cccc12.Nc1nc(-c2ccccn2)cc2c(Cl)cccc12.O=[N+]([O-])[O-].[Cu+] [IIa, Bis[1-amino-5-chloro-3-(2-pyridyl)isoquinoline]cuprous nitrate] | – | – | – | MIC ([2]; Table I): 1.5 µg/mL |
| Nc1ccc2ccc3ccc(N)nc3c2n1 [E] | – | – | – | MIC ([2]; Mycoplasmoides gallisepticum, Table IVb, read-out: MIC M. gall.): 50 µg/mL (≈ 238 µM); MIC M. gall. with Cu ([2]; Table IVb, with Cu (50 μg/ml Cu^2+)): 0.8 µg/mL |
| Cn1ccnc1-c1nc(N)c2ccccc2n1.Cn1ccnc1-c1nc(N)c2ccccc2n1.O=[N+]([O-])[O-].O=[N+]([O-])[O-].[Cu+2] [XVIb (3), Bis[4-amino-2-(1-methyl-1H-imidazole-2-yl)quinazoline]cupric nitrate] | – | 0.2 | – | MIC ([2]; Table I): 12.5 µg/mL |
| C=Cn1ccnc1-c1nc(N)c2ccccc2n1.C=Cn1ccnc1-c1nc(N)c2ccccc2n1.O=[N+]([O-])[O-].[Cu+] [XVIIIb (1), Bis[4-amino-2-(1-ethenyl-1H-imidazole-2-yl)quinazoline]cuprous nitrate] | – | 0.2 | – | MIC ([2]; Table I): 12.5 µg/mL |
| Cc1ccc2c(N)nc(-c3ccccn3)cc2c1 [VIIIc] | 3 (≈ 12.8 µM) | 0.4 | – | – |
